Assay [1] deals with SF-HL strain of permethrin-resistant human head lice. Description: Hair tuft mortality bioassay, permethrin-resistant SF-HL lice. Type of assay: in vivo, Pediculus humanus capitis. Set-up: LT50 (lethal time to 50% mortality): unit not given beside the values. Particulars: 10 minute exposure. An excerpt: The SF-HL strain of permethrin-resistant human head lice (Pediculus humanus capitis, Phthiraptera:Pediculidae) is collected from infested children in Plantation and Homestead, Fla. and is maintained on an in vitro feeding system at the University of Massachusetts at Amherst, Mass. as described by Yoon et al. (2006). Lice are maintained without a human host on the in vitro rearing system from about 24 to about 36 generations. Permethrin-resistant SF-HL are selected periodically using 1% permethrin-treated filter papers (Yoon et al. 2006). Filter papers (35 mm diameter, Whatman No. 1) are immersed into 1% permethrin dissolved in acetone (w/v) for 10 seconds and is air dried in a dark fumehood from about 20 to about 30 minutes. Mixed developmental stages (first instars to adult) are placed on the treated filter paper and exposed for about 5 hours. Surviving lice are transferred back into the feeding system. The SF-HL strain are susceptible to Ovide® (0.5% malathion), but resistant to Nix® (1% permethim) and cross-resistant to DDT treatments. (Moon et al. 2003).
Mortality bioassays are performed to compare lethal time to 50% mortality values (LT50) between the ivermectin formulations, Nix®, and Ovide®. Experimental lice are newly hatched first instars (less than 24 hours old). The lice are randomly taken from the in vitro rearing system, where the lice take an overnight blood meal. Lice (about 30 lice/treatment) are placed on an individual hair tuft (about 300 strands, about 4 cm in length) using sterile forceps, and the treatment is gently rubbed into the hair until saturation occurs.
After a 10 minute exposure period, the hair tuft with lice are washed sequentially in three separate water baths, containing about 10 ml of ddH2O for about 5 seconds each. The washed hair tuft with lice is blotted onto stacks of filter paper and air dried for about 5 minutes. Any lice dislodged during treatment or washing are placed back onto the treated hair tuft. After drying, the treated hair tuft with lice is examined under a dissecting microscope and the number of dead lice is recorded.
A louse is considered dead if it can not right itself when inverted and when its legs have ceased all movements when probed. Treated hair tufts with lice are then placed onto the feeding membrane in the in vitro rearing system and are maintained at 31° C. and 75% humidity. The numbers of dead lice are reassessed at 10 minute intervals until a greater than 90% mortality is achieved. The timing for mortality begins immediately following the 10 minute exposure period. Because of this, mortality is not assessed during the washing and drying intervals (about 5 minutes). Log time versus logit percent mortality regression lines are generated to determine LT50 and LT95 values and maximum log-likelihood ratio tests are performed to test the equality (slope and intercept) of the regression lines (p<0.05, Polo PC, LeOra Software, 1987).
To determine whether ivermectin in formulation performs better than ivermectin alone, blood-fed lice are placed onto 0.5% (w/v) ivermectin formulation-treated hair tufts as described above. Blood-fed lice are also placed onto hair tufts that are treated with 0.5% ivermectin in acetone (acetone is allowed to volatilize in a fumehood for about 1 hour prior to transferring lice to the treated hair tuft), washed, and transferred to the in vitro rearing system as described above.

Assay [2] concerns head lice. Particulars: cited from earlier work.
Assay [3] relates to SF-HL strain. As to conditions: Moon et al. 2003; cited from earlier work.
In assay [4] the test system is head lice. As to conditions: cited from earlier work. The source holds these as a separate data set.
Where [5] appears, read: SF-HL lice, Ovide values are estimated times.

“And” between values parts separate entries of the source, which are not always exact repeats. Identical values can stand only once. Like-named read-outs stand apart in the source and are kept apart here.

Regarding ivermectin [0.5% (non-formulated)], in assay [1] (setting [5]), the “LT50 (lethal time to 50% mortality)” value is on record as 221.8 and the LT95 is 419.4. Besides, in assay [1] (SF-HL), the “times faster than Nix at the LT50” value came to 27.9 times, the “times faster than Nix at the LT95” value worked out at 51.5 times, the “times faster than ddH2O treatment at the LT50” value stood at 96.7 times and the “times faster than ddH2O treatment at the LT95” value came out at 103.0 times. In assay [1] (SF-HL), the “times faster than placebo formulation at the LT50” value is on record as 31.2 times and the “times faster than placebo formulation at the LT95” value is listed as 82.4 times.
“22,23-dihydroavermectin B1a and B1b [ivermectin]”: the “effect against head lice in humans” value in assay [2] (single oral 200 μg/kg dose, n=26 (Glaziou et al. 1994)) is reported as “effective”. For the same compound, the “results against head lice infestation” value in assay [2] (single oral dose of 100-200 μg/kg (Dunne et al. 1991)) is given as “Positive, but not absolute, results”.
On to `Clc1ccc(C(c2ccc(Cl)cc2)C(Cl)(Cl)Cl)cc1` [DDT], for which the “status of the SF-HL strain towards the treatment” value in assay [3] is “cross-resistant”.
Consider `Cl[C@H]1[C@H](Cl)[C@@H](Cl)[C@@H](Cl)[C@H](Cl)[C@H]1Cl` [lindane], for which the “efficacy for treating head lice” value was 61% and 93% in assay [4] (reports in other parts of the world); 17% in assay [4] (reports in the U.S.).

The record behind these values is patent US11229207B2, “Topical avermectin formulations and methods for elimination and prophylaxis of susceptible and treatment resistant strains of head lice” (priority 2006, dated 2022).
